Laboratory results published in US7906551B2 (Rottapharm S.p.A., priority 2006, dated 2011).
Like-named read-outs stand apart in the source and are kept apart here.

Assays:
COX-1 = target: T1, COX-1 (Mus musculus, UniProt P22437); assay: Assessment of COX-1 activity in J774 cells (arachidonic acid, PGE2 radioimmunoassay); type: cell-based, murine
T1 construct: endogenous in cells; host or cells: J774 murine monocyte/macrophage cell line
T1 sequence (P22437 27-602): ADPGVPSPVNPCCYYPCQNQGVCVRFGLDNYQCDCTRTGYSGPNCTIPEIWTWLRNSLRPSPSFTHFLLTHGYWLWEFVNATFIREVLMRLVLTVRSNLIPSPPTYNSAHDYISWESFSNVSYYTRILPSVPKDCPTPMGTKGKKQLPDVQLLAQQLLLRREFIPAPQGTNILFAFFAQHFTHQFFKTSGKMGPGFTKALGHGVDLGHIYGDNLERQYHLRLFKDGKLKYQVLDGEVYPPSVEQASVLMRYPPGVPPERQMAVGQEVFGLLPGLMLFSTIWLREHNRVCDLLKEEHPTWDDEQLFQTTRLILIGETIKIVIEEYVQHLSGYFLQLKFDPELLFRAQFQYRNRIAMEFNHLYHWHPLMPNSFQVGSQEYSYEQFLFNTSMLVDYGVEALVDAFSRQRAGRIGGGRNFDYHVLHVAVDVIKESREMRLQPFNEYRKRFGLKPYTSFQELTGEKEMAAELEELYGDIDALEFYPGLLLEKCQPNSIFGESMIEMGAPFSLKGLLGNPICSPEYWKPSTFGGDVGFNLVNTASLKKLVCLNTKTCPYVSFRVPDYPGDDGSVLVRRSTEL
Method: Stock solutions of the reference standard or of the test compounds were prepared in dimethyl sulphoxide, and an equivalent amount of dimethyl sulphoxide was included in control samples. At the end of the incubation the supernatants were collected for the measurement of PGE2 by radioimmunoassay.
(§1) Analysis. Throughout the time the experiments lasted, triplicate wells were used for the various conditions of treatment. Results are expressed as the mean, for 3 experiments, of the % inhibition of PGE2 production by test compounds with respect to control samples. Data fit was obtained using the sigmoidal dose-response equation (variable slope). The IC50 were calculated by GraphPad Instat program (GraphPad software).

COX-2 = target: T2, COX-2 (Mus musculus, UniProt Q05769); assay: Assessment of COX-2 activity in LPS-stimulated J774 cells (PGE2 radioimmunoassay); type: cell-based, murine; settings: for IC50: read-out: COX-2 IC50
T2 construct: lipopolysaccharide (LPS, 10 μg/mL) to induce COX-2; endogenous in cells; host or cells: J774 murine monocyte/macrophage cell line, LPS-stimulated
T2 sequence (Q05769 18-604): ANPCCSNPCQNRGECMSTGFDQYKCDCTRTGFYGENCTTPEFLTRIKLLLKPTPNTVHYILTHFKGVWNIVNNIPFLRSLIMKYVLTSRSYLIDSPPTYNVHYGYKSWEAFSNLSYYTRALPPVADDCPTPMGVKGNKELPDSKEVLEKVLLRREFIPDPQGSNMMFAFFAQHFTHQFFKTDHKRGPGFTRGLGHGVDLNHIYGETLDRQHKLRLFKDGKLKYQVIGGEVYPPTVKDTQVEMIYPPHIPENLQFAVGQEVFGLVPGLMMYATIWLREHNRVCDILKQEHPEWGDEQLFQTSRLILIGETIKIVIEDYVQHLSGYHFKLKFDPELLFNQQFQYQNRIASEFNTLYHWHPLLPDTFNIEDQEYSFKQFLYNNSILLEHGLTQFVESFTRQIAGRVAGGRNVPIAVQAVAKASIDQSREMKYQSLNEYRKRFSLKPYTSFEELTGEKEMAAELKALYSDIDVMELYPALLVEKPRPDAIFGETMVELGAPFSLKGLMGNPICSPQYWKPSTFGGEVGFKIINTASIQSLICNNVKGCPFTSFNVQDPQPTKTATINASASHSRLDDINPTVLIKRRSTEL
Method: Cells were stimulated for 24 h with E. coli lipopolysaccharide (LPS, 10 μg/mL) to induce COX-2, in the absence or presence of test compounds, at the concentrations previously reported. The supernatants were collected for the measurement of PGE2 by radioimmunoassay.
as §1

[1] = system: rat model of edema induced by carragenine; assay: Carrageenan-induced paw edema; type: in vivo; settings: 1 h, 20 mg/Kg, read-out: Edema inhibition 60 min, MPE
Method: (§2) Male Swiss albino mice (23-25 g) and Sprague Dawley or Wistar rats (150-200 g) were used. The animals were fed a standard laboratory diet and tap water ad libitum and kept at 23±1° C. with a 12 h light/dark cycle, light on at 7 a.m.
Rats paw volumes were measured using a plethysmometer. Rats received the investigated compounds 4 hours after a 0.1-ml injection of 1.0% carrageenan in the right hind paw. Five hours after the injection of carrageenan (i.e. 1 hour after the administration of the investigated compound), the paw volume of the right hind paw was measured and compared with saline/carrageenan-treated controls. Results are reported as maximum percent effect (MPE), see below for detailed explanation.

[2] = system: rat model of hyperalgesia induced by carragenine; assay: Paw pressure test, hyperalgesia induced by carragenine; type: in vivo; settings: 20 mg/Kg
Method: as §2
The nociceptive threshold in the rat was determined with an analgesimeter, according to the method described by Leighton et al, G. E.; Br. J. Pharmacol. 1988, 93, 553-560. Threshold pressure was measured before and 30, 60 and 120 min after treatment. An arbitrary cut-off value of 250 g was adopted. In order to induce an inflammatory process in the rat paw carrageenan (0.1 ml, 1%) was administered i.p. 4 h before test.

[3] = 0.5 h, Table 10, 30 min, read-out: Analgesia 30 min MPE
[4] = 1 h, Table 10, 60 min, read-out: Analgesia 60 min MPE

## Cc1c(CCOC(=O)c2ccc(F)cc2)cc(-c2ccc(S(C)(=O)=O)cc2)n1-c1ccc(F)cc1 [Example 33, 2-(1-(4-fluorophenyl)-2-methyl-5-(4-methylsulphonyl)phenyl-1H-pyrrol-3-yl)ethyl 4-fluorobenzoate]
COX-1; Table 11, Formula I-e
  IC50: > 100000 nM
COX-2
  COX-2 % of inhibition at 1.10^−5 M: 69%

## Cc1c(CCOC(=O)c2cccs2)cc(-c2ccc(S(C)(=O)=O)cc2)n1-c1ccc(F)cc1 [Example 34, 2-(1-(4-fluorophenyl)-2-methyl-5-(4-methylsulphonyl)phenyl-1H-pyrrol-3-yl)ethyl 2-tiophencarboxylate]
COX-1; Table 11, Formula I-e
  IC50: > 100000 nM
COX-2
  COX-2 % of inhibition at 1.10^−5 M: 69%

## CCCOCCc1cc(-c2ccc(S(C)(=O)=O)cc2)n(-c2ccccc2)c1C [Example 22, [2-Methyl-5-(4-methylsulphonyl)phenyl-1-phenyl-3-(2-n-propyloxyethyl)]-1H-pyrrole]
[1]; Table 10, 60 min
  inhibition in vivo at 20 mg/kg: 43%
[2]; [3]
  inhibition in vivo at 20 mg/kg: 88%
[2]; [4]
  inhibition in vivo at 20 mg/kg: 94%

## Cc1c(CC(=O)N(C)Cc2ccccc2)cc(-c2ccc(S(C)(=O)=O)cc2)n1-c1ccccc1 [Example 16, N-Benzyl-N-methyl-[2-methyl-5-(4-methylsulphonyl)phenyl-1-phenyl-1H-pyrrol-3-yl]acetamide]
COX-1; Table 8, Formula I-c
  IC50: > 100000 nM
COX-2; Table 8, Formula I-c
  IC50: 170 nM

## CCC(=O)OCCc1cc(-c2ccc(S(C)(=O)=O)cc2)n(-c2ccc(F)cc2)c1C [Example 29, 2-(1-(4-Fluorophenyl)-2-methyl-5-(4-methylsulphonyl)phenyl-1H-pyrrol-3-yl)ethyl propionate]
COX-1; Table 11, Formula I-e
  IC50: > 100000 nM
COX-2
  COX-2 % of inhibition at 1.10^−5 M: 97%

## CCNC(=O)Cc1cc(-c2ccc(S(C)(=O)=O)cc2)n(-c2ccc(C(F)(F)F)cc2)c1C [Example 18, N-Ethyl-[2-methyl-5-(4-methylsulphonyl)phenyl-1-(4-trifluoromethyl)phenyl-1H-pyrrol-3-yl]acetamide]
COX-1; Table 8, Formula I-c
  IC50: > 100000 nM
COX-2; Table 8, Formula I-c
  IC50: 190 nM

## Cc1c(CC(=O)N(C)Cc2ccccc2)cc(-c2ccc(S(C)(=O)=O)cc2)n1-c1ccc(C(F)(F)F)cc1 [Example 19, N-Benzyl-N-methyl-[2-methyl-5-(4-methylsulphonyl)phenyl-1-(4-trifluoromethyl)phenyl-1H-pyrrol-3-yl]acetamide]
COX-1; Table 8, Formula I-c
  IC50: > 100000 nM
COX-2; Table 8, Formula I-c
  IC50: 470 nM

## CCNC(=O)Cc1cc(-c2ccc(S(C)(=O)=O)cc2)n(-c2ccccc2)c1C [Example 14, N-Ethyl-[2-methyl-5-(4-methylsulphonyl)phenyl-1-phenyl-1H-pyrrol-3-yl]acetamide]
COX-1; Table 8, Formula I-c
  IC50: > 100000 nM
COX-2; Table 8, Formula I-c
  IC50: 350 nM

## CCCC(=O)OCCc1cc(-c2ccc(S(C)(=O)=O)cc2)n(-c2ccc(F)cc2)c1C [Example 30, 2-(1-(4-fluorophenyl)-2-methyl-5-(4-methylsulphonyl)phenyl-1H-pyrrol-3-yl)ethyl butanoate]
COX-1; Table 11, Formula I-e
  IC50: > 100000 nM
COX-2
  COX-2 % of inhibition at 1.10^−5 M: 86%

## CCCOCCc1cc(-c2ccc(S(C)(=O)=O)cc2)n(-c2ccc(F)cc2)c1C [Example 25, [1-(4-Fluoro)phenyl-2-methyl-5-(4-methylsulphonyl)phenyl-3-(2-n-propyloxyethyl)]-1H-pyrrole]
[1]; Table 10, 60 min
  inhibition in vivo at 20 mg/kg: 41%
[2]; [3]
  inhibition in vivo at 20 mg/kg: 53%
[2]; [4]
  inhibition in vivo at 20 mg/kg: 70%

## Cc1c(CCOC(=O)c2ccccc2)cc(-c2ccc(S(C)(=O)=O)cc2)n1-c1ccc(F)cc1 [Example 31, 2-(1-(4-fluorophenyl)-2-methyl-5-(4-methylsulphonyl)phenyl-1H-pyrrol-3-yl)ethyl benzoate]
COX-1; Table 11, Formula I-e
  IC50: > 100000 nM
COX-2
  COX-2 % of inhibition at 1.10^−5 M: 76%

## CCOC(=O)C(O)c1cc(-c2ccc(S(C)(=O)=O)cc2)n(-c2cccc(F)c2)c1C (racemic) [Example 9, Ethyl[2-hydroxy-2-[1-(3-fluoro)phenyl-2-methyl-5-(4-methylsulphonyl)phenyl-1H-pyrrol-3-yl]]acetate]
[1]; Table 7, 60 min
  inhibition in vivo at 20 mg/kg: 40%
[2]; 0.5 h, Table 7, 30 min, read-out: Analgesia 30 min MPE
  inhibition in vivo at 20 mg/kg: 80%
[2]; 1 h, Table 7, 60 min, read-out: Analgesia 60 min MPE
  inhibition in vivo at 20 mg/kg: 40%
COX-2; Table 6, Formula Ib
  COX-1/COX-2 Selectivity Index (IC50 ratio): >310
  IC50: 320 nM

## CCOC(=O)C(O)c1cc(-c2ccc(S(C)(=O)=O)cc2)n(-c2cccc(F)c2)c1C (single isomer, unassigned; (+)) [Example 9a, (+)-Ethyl[2-hydroxy-2-[1-(3-fluoro)phenyl-2-methyl-5-(4-methylsulphonyl)phenyl-1H-pyrrol-3-yl]]acetate]
COX-2; Table 6, Formula Ib
  COX-1/COX-2 Selectivity Index (IC50 ratio): >1300

## COCCc1cc(-c2ccc(S(C)(=O)=O)cc2)n(-c2ccc(C(F)(F)F)cc2)c1C [Example 26, [2-Methyl-5-(4-methylsulphonyl)phenyl-3-(2-methoxyethyl)-1-(4-trifluoromethyl)phenyl]-1H-pyrrole]
COX-1; Table 9, Formula I-d
  IC50: > 100000 nM
COX-2; Table 9, Formula I-d
  IC50: 49 nM

## CCOC(=O)C(O)c1cc(-c2ccc(S(C)(=O)=O)cc2)n(-c2cccc(F)c2)c1C (single isomer, unassigned; (-)) [Example 9b, (−)-Ethyl[2-hydroxy-2-[1-(3-fluoro)phenyl-2-methyl-5-(4-methylsulphonyl)phenyl-1H-pyrrol-3-yl]]acetate]
COX-2; Table 6, Formula Ib
  COX-1/COX-2 Selectivity Index (IC50 ratio): >650

## CNC(=O)Cc1cc(-c2ccc(S(C)(=O)=O)cc2)n(-c2ccc(C(F)(F)F)cc2)c1C [Example 17, N-Methyl-[2-methyl-5-(4-methylsulphonyl)phenyl-1-(4-trifluoromethyl)phenyl-1H-pyrrol-3-yl]acetamide]
COX-1; Table 8, Formula I-c
  IC50: > 100000 nM
COX-2; Table 8, Formula I-c
  IC50: 90 nM

## CCOCCc1cc(-c2ccc(S(C)(=O)=O)cc2)n(-c2ccccc2)c1C [Example 21, [3-(2-Ethoxyethyl)-2-methyl-5-(4-methylsulphonyl)phenyl-1-phenyl]-1H-pyrrole]
[1]; Table 10, 60 min
  inhibition in vivo at 20 mg/kg: 45%
[2]; [3]
  inhibition in vivo at 20 mg/kg: 96%
[2]; [4]
  inhibition in vivo at 20 mg/kg: 72%

## COCCc1cc(-c2ccc(S(C)(=O)=O)cc2)n(-c2ccc(F)cc2)c1C [Example 23, [1-(4-Fluoro)phenyl-2-methyl-5-(4-methylsulphonyl)phenyl-3-(2-methoxyethyl)]-1H-pyrrole]
COX-1; Table 9, Formula I-d
  IC50: > 100000 nM
COX-2; Table 9, Formula I-d
  IC50: 18 nM

## Cc1c(CCOC(=O)c2ccccc2F)cc(-c2ccc(S(C)(=O)=O)cc2)n1-c1ccc(F)cc1 [Example 32, 2-(1-(4-fluorophenyl)-2-methyl-5-(4-methylsulphonyl)phenyl-1H-pyrrol-3-yl)ethyl 2-fluorobenzoate]
COX-1; Table 11, Formula I-e
  IC50: > 100000 nM
COX-2
  COX-2 % of inhibition at 1.10^−5 M: 64%
